From patent US8178658B2 (Dow AgroSciences, LLC, priority 2008, dated 2012)

Legend:
[1] = test system: beet armyworm (BAW; Spodoptera exigua: Lepidoptera); assay: 96-well microtiter plate-based high throughput (HTS) diet bioassay on beet armyworm (BAW HTS); type: in vivo; conditions: BAW eggs, 12 μg test compound per well, mortality at 6 d post-treatment, mortality class
How it was run: (§1)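 Compound was layered onto artificial diet and dried, then infested: eggs for the 96-well test (12 μg per well, 29° C, dark) and 3–5 second instars for the 128-well tray (50 μg/cm^2, 25° C, 14:10 light-dark). Both ran six days before percent mortality was recorded and averaged across replicates or wells.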

[2] = test system: beet armyworm (BAW; Spodoptera exigua: Lepidoptera); assay: 128-well diet tray assay on beet armyworm (BAW 50); type: in vivo; conditions: 128-well diet tray assay; 50 μg/cm^2 of test compound on diet; second instar BAW larvae; mortality class
How it was run: as §1

[3] = 96-well microtiter plate HTS diet assay

| SMILES | BAW HTS ([1]; 96-well HTS diet assay) | BAW HTS [1, 3] | BAW 50 ug/cm2 [2] |
| --- | --- | --- | --- |
| CCO[C@@H]1[C@@H](OC)[C@H](C)O[C@@H](OC(=O)Nc2ccc(-c3ccc(-c4ccc(OC(F)(F)F)cc4)cn3)cc2)[C@@H]1OC [Compound 239] | B (either (1) the compound was tested and less than 50 percent mortality was observed or (2) the compound was not tested) | B (either (1) the compound was tested and less than 50 percent mortality was observed or (2) the compound was not tested) | B (either (1) the compound was tested and less than 50 percent mortality was observed or (2) the compound was not tested) |
| CCO[C@@H]1[C@@H](OC)[C@H](C)O[C@@H](OC(=O)Nc2ccc(-c3noc(-c4ccc(OC(F)(F)F)cc4)n3)cc2)[C@@H]1OC [Compound 240] | A (the compound was tested and at least 50 percent mortality was observed) | A (the compound was tested and at least 50 percent mortality was observed) | A (the compound was tested and at least 50 percent mortality was observed) |
| CCO[C@@H]1[C@@H](OC)[C@H](C)O[C@@H](OC(=O)Nc2ccc(N3CCN(c4ccc(OC(F)(F)F)cc4)CC3)cc2)[C@@H]1OC [Compound 241] | B (either (1) the compound was tested and less than 50 percent mortality was observed or (2) the compound was not tested) | B (either (1) the compound was tested and less than 50 percent mortality was observed or (2) the compound was not tested) | B (either (1) the compound was tested and less than 50 percent mortality was observed or (2) the compound was not tested) |
| CCO[C@@H]1[C@@H](OC)[C@H](C)O[C@@H](OC(=O)Nc2ccc(N3CC(=O)N(c4ccc(OC(F)(F)F)cc4)CC3=O)cc2)[C@@H]1OC [Compound 242] | B (either (1) the compound was tested and less than 50 percent mortality was observed or (2) the compound was not tested) | B (either (1) the compound was tested and less than 50 percent mortality was observed or (2) the compound was not tested) | A (the compound was tested and at least 50 percent mortality was observed) |
| CCO[C@@H]1[C@@H](OC)[C@H](C)O[C@@H](OC(=O)Nc2ccc(N3CC(=O)N(c4ccc(OC(F)(F)C(F)(F)F)cc4)CC3=O)cc2)[C@@H]1OC [Compound 243] | B (either (1) the compound was tested and less than 50 percent mortality was observed or (2) the compound was not tested) | B (either (1) the compound was tested and less than 50 percent mortality was observed or (2) the compound was not tested) | B (either (1) the compound was tested and less than 50 percent mortality was observed or (2) the compound was not tested) |
| CO[C@H]1[C@H](C)O[C@H](OC(=O)Nc2ccc(-c3ncn(-c4ccc(OC(F)(F)C(F)(F)F)cc4)n3)cc2)C[C@@H]1OC [Compound 245] | B (either (1) the compound was tested and less than 50 percent mortality was observed or (2) the compound was not tested) | B (either (1) the compound was tested and less than 50 percent mortality was observed or (2) the compound was not tested) | A (the compound was tested and at least 50 percent mortality was observed) |
| CCO[C@@H]1[C@@H](OC)[C@H](C)O[C@@H](OC(=O)Nc2ccc(-c3ccc(-c4ccc(OC(F)(F)F)cc4)nn3)cc2)[C@@H]1OC [Compound 248] | B (either (1) the compound was tested and less than 50 percent mortality was observed or (2) the compound was not tested) | B (either (1) the compound was tested and less than 50 percent mortality was observed or (2) the compound was not tested) | B (either (1) the compound was tested and less than 50 percent mortality was observed or (2) the compound was not tested) |
